From patent publication US10687525B2, “Enhancement of cell cryopreservation with glycolipids” (TISSUE TESTING TECHNOLOGIES LLC, priority 2016, dated 2020)

System: keratinocytes
Experiment: Cell viability of keratinocytes after cryopreservation in 10% DMSO in RPMI (alamarBlue)
Format: cell-based
Settings: keratinocytes cryopreserved in vials or culture plates in 10% DMSO in RPMI
Method: In the results discussed below, measurement of Cell Viability and Proliferation in FIGS. 1-4 employed AlamarBlue™ by measuring the oxidation/reduction reactions that take place within cells. AlamarBlue™ was added directly to the plates containing cultured cells in culture medium and incubated for 3 hours at 37° C. Upon reduction, AlamarBlue™ changes color and this color change can be measured and quantified. The culture plates were read using a Gemini EM fluorescent microplate reader ([…]) at an excitation wavelength of 544 nm and an emission wavelength of 590 nm. […] Keratinocytes were cryopreserved in vials or in culture plates in 10% DMSO in RPMI. Metabolic activity was measured immediately after thawing and for several days post thaw. Cell viability (in percent of untreated controls) was calculated as the mean (±SEM) of 120 replicates.

SMILES: C[S+](C)[O-] [DMSO, dimethyl sulfoxide]
- cell yields after cryopreservation (cell viability in percent of untreated controls): below 50%
